Laboratory results as given in patent publication US20090069370A1, “AZACYCLYLISOQUINOLINONE AND ISOINDOLINONE DERIVATIVES AS HISTAMINE-3 ANTAGONISTS” (Wyeth, priority 2007, published 2009).
Structures can show the parent of a compound that is named as a salt.

Target: T1, Human Histamine H3 Receptor (Homo sapiens, UniProt Q9Y5N1)
T1 construct: expressed in transfected cells; host or cells: HEK293T cells, stably transfected; membrane preparation
Test: Methyl histamine binding in human histamine H3 receptor cell line
Details: membranes of stably transfected HEK293T cells; radioligand 1 nM; Ki from IC50 by Cheng-Prusoff
Method: Evaluation of Methyl Histamine Binding in Human Histamine H3 Receptor Cell Line
The affinity of test compounds for the histamine 3 (H3) receptor is evaluated in the following manner. Stably transfected HEK293T cells are grown in DMEM containing 10% heat inactivated FBS and G-418 (500 ug/ml). Cells are scraped from the plate, transferred to centrifuge tubes, washed one time in PBS by centrifugation in a Sorvall RT7 Plus centrifuge (2000 rpm 10 minutes, 4° C.). The resulting pellets are stored at −80° C. until ready for use. Cells are re-suspended in buffer (50 mM Tris pH=7.5) and placed in a Dounce homogenizer, douncing ten times to homogenize cells. The homogenate is spun down by centrifugation (Sorvall RT7 Plus, 1800 rpm 10 minutes, 4° C.). The supernatant is placed in a Corex tube and spun down by centrifugation (Sorvall RC 5c Plus, 17,000 rpm 20 minutes, 4° C.). The pellet is resuspended in buffer (50 mM Tris, pH 7.5). Protein concentration (ug/ul) is determined using the Micro-BCA Protein Determination. The binding assay is set up in a 96 well microtiter plate in a total volume of 250 uL. Non-specific binding is determined in the presence of 10 uM clobenpropit. The final radioligand concentration is 1 nM. The test compound is serially diluted using the Beckman Biomek2000 to a final approximate range of 100 uM to 100 pM. Membranes are suspended in buffer, homogenized in 2 bursts of ten seconds using a Vitris mechanical homogenizer set at power setting 5. Ten μg of membranes are added to each well. Following a one hour incubation at 30° C., the reaction is terminated by the addition of ice cold buffer and rapid filtration with a Packard Filtermate Harvester through a GF/B filter pre-soaked with 1% PEI for one hour. The plate is dried for one hour at 37° C. and 60 μL Microscint Scintillant is added to each well. The CPM per well is measured on a Packard Top Count NXT. Ki values are determined in nM. The Ki is calculated from the IC50 (i.e. the concentration of competing ligand which displaces 50% of the specific binding of the radioligand). CPM values are expressed as % specific binding and plotted vs compound concentration. A curve is fitted using a four-parameter logistic fit and the IC50 value is determined. The Ki is calculated from this using the Cheng-Prusoff equation: […]=IC50/1+(L/Kd) where L=concentration of free radioligand used in the assay, and Kd is the dissociation constant of the radioligand for the receptor. L is determined for each experiment by counting an aliquot of the diluted radioligand (corresponding to that added to each well) and the Kd has previously been determined under identical conditions for this cell line/radioligand.

T1 sequence (Q9Y5N1 whole entry): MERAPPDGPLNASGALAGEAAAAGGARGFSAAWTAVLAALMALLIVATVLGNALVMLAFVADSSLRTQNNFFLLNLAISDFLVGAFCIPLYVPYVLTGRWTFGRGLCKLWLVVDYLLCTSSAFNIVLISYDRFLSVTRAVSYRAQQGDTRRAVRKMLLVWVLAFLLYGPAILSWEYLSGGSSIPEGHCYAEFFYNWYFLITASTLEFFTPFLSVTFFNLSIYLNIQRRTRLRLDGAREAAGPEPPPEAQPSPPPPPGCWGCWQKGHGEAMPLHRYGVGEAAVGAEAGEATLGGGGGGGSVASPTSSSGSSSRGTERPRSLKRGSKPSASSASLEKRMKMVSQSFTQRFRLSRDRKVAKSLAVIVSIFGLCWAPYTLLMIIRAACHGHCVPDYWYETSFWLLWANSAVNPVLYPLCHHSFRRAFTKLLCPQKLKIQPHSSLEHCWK

| SMILES | Ki [nM] |
| --- | --- |
| CCNC(=O)c1ccc(Oc2ccc3c(c2)CCN([C@@H]2CCN(C4CCC4)C2)C3=O)cc1 [Example 34, 4-({2-[(3R)-1-cyclobutylpyrrolidin-3-yl]-1-oxo-1,2,3,4-tetrahydroisoquinolin-6-yl}oxy)-N-ethylbenzamide] | ≤ 10 |
| CNC(=O)c1ccc(-c2ccc3c(c2)CCN(C2CCN(C4CCC4)C2)C3=O)cc1 (stereo in doubt) [Example 90, (R)-4-(2-(1-cyclobutylpyrrolidin-3-yl)-1-oxo-1,2,3,4-tetrahydro-isoquinolin-6-yl)-N-methylbenzamide hydrochloride] | ≤ 10 |
| O=C(c1ccc2c(c1)CCN([C@@H]1CCN(C3CCC3)C1)C2=O)N1CCCC1 [Example 87, 2-[(3R)-1-cyclobutylpyrrolidin-3-yl]-6-(pyrrolidin-1-ylcarbonyl)-3,4-dihydroisoquinolin-1(2H)-one hydrochloride] | 25.1 to 50 |
| O=C(c1ccc(-c2ccc3c(c2)CCN([C@@H]2CCN(C4CCC4)C2)C3=O)cc1Cl)N1CCCC1 [Example 49, 6-[3-chloro-4-(pyrrolidin-1-ylcarbonyl)phenyl]-2-[(3R)-1-cyclobutylpyrrolidin-3-yl]-3,4-dihydroisoquinolin-1(2H)-one] | ≤ 10 |
| O=C(c1ccc(-c2ccc3c(c2)CCN([C@@H]2CCN(CC4CC4)C2)C3=O)cc1)N1CCCC1 [Example 58, 2-[(3R)-1-(cyclopropylmethyl)pyrrolidin-3-yl]-6-[4-(pyrrolidin-1-ylcarbonyl)phenyl]-3,4-dihydroisoquinolin-1(2H)-one] | ≤ 10 |
| O=C1NCCc2cc(-c3ccc4c(c3)CCN([C@@H]3CCN(C5CCC5)C3)C4=O)ccc21 [Example 89, (R)-2-(1-cyclobutylpyrrolidin-3-yl)-3,3′,4,4′-tetrahydro-6,6′-biisoquinoline-1,1′(2H,2′H)-dione hydrochloride] | ≤ 10 |
| O=C(NC1CCCC1)c1ccc2c(c1)CCN([C@@H]1CCN(C3CCC3)C1)C2=O [Example 88, 2-[(3R)-1-cyclobutylpyrrolidin-3-yl]-N-cyclopentyl-1-oxo-1,2,3,4-tetrahydroisoquinoline-6-carboxamide hydrochloride] | 10.1 to 25 |
| O=C(O)c1ccc(Oc2ccc3c(c2)CCN([C@@H]2CCN(C4CCC4)C2)C3=O)cc1 [Example 32, (R)-4-(2-(1-cyclobutylpyrrolidin-3-yl)-1-oxo-1,2,3,4-tetrahydroiso-quinolin-6-yloxy)benzoic acid] | > 100 |
| C[C@@H]1CCCN1C(=O)c1ccc(-c2ccc3c(c2)CCN([C@@H]2CCN(C4CCC4)C2)C3=O)c(F)c1 [Example 76, 2-[(3R)-1-cyclobutylpyrrolidin-3-yl]-6-(2-fluoro-4-{[(2R)-2-methylpyrrolidin-1-yl]carbonyl}phenyl)-3,4-dihydroisoquinolin-1(2H)-one] | ≤ 10 |
| CCNC(=O)c1ccc(Oc2ccc3c(c2)CCN([C@@H]2CCN(C4CCCC4)C2)C3=O)cc1 [Example 38, 4-({2-[(3R)-1-cyclopentylpyrrolidin-3-yl]-1-oxo-1,2,3,4-tetrahydroisoquinolin-6-yl}oxy)-N-ethylbenzamide] | 10.1 to 25 |
| O=C(c1ccc(-c2ccc3c(c2)CCN([C@@H]2CCN(C4CCCCC4)C2)C3=O)cc1)N1CCCC1 [Example 57, 2-[(3R)-1-cyclohexylpyrrolidin-3-yl]-6-[4-(pyrrolidin-1-ylcarbonyl)phenyl]-3,4-dihydroisoquinolin-1(2H)-one] | ≤ 10 |
| O=C(c1ccc(-c2ccc3c(c2)CCN([C@@H]2CCCN(C4CCCC4)C2)C3=O)cc1)N1CCCC1 [Example 71, 2-[(3R)-1-cyclopentylpiperidin-3-yl]-6-[4-(pyrrolidin-1-ylcarbonyl)phenyl]-3,4-dihydroisoquinolin-1(2H)-one] | 10.1 to 25 |
| CNC(=O)c1ccc(Oc2ccc3c(c2)CCN([C@@H]2CCN(C4CCC4)C2)C3=O)cc1 [Example 33, 4-({2-[(3R)-1-cyclobutylpyrrolidin-3-yl]-1-oxo-1,2,3,4-tetrahydroisoquinolin-6-yl}oxy)-N-methylbenzamide] | ≤ 10 |
| CN1CCC(N2Cc3cc(-c4ccc(C#N)cc4)ccc3C2=O)CC1 [Example 23, hydrochloride] | > 100 |
| O=C(c1ccc(-c2ccc3c(c2)CCN([C@@H]2CCN(Cc4ccoc4)C2)C3=O)cc1)N1CCCC1 [Example 60, 2-[(3R)-1-(furan-3-ylmethyl)pyrrolidin-3-yl]-6-[4-(pyrrolidin-1-ylcarbonyl)phenyl]-3,4-dihydroisoquinolin-1(2H)-one] | ≤ 10 |
| O=C(c1ccc(-c2ccc3c(c2)CCN([C@@H]2CCN(Cc4cccs4)C2)C3=O)cc1)N1CCCC1 [Example 62, 6-[4-(pyrrolidin-1-ylcarbonyl)phenyl]-2-[(3R)-1-(thiophen-2-ylmethyl)pyrrolidin-3-yl]-3,4-dihydroisoquinolin-1(2H)-one] | 25.1 to 50 |

Continued, values first:

| Ki [nM] | SMILES |
| --- | --- |
| ≤ 10 | O=C(c1ccc(-c2ccc3c(c2)CCN([C@@H]2CCN(C4CCC4)C2)C3=O)cc1)N1CCCC1 [Example 47, 2-[(3R)-1-cyclobutylpyrrolidin-3-yl]-6-[4-(pyrrolidin-1-ylcarbonyl)phenyl]-3,4-dihydroisoquinolin-1(2H)-one] |
| > 100 | CC(C)N1CCC[C@@H](N2CCc3cc(-c4ccc(C(=O)N5CCCC5)cc4)ccc3C2=O)C1 [Example 72, 2-[(3R)-1-isopropylpiperidin-3-yl]-6-[4-(pyrrolidin-1-ylcarbonyl)phenyl]-3,4-dihydroisoquinolin-1(2H)-one] |
| ≤ 10 | O=C(NC1CCCC1)c1ccc(COc2ccc3c(c2)CCN(C2CCN(C4CCC4)CC2)C3=O)cc1 [Example 21, 4-({[2-(1-Cyclobutylpiperidin-4-yl)-1-oxo-1,2,3,4-tetrahydroisoquinolin-6-yl]oxy}methyl)-N-cyclopentylbenzamide] |
| 10.1 to 25 | CN(C)C(=O)c1ccc(Oc2ccc3c(c2)CCN(C2CCN(C4CCC4)CC2)C3=O)cc1 [Example 10, 4-{[2-(1-Cyclobutylpiperidin-4-yl)-1-oxo-1,2,3,4-tetrahydroisoquinolin-6-yl]oxy}-N,N-dimethylbenzamide] |
| ≤ 10 | O=C(NC1CCC1)c1ccc(-c2ccc3c(c2)CCN([C@@H]2CCN(C4CCC4)C2)C3=O)c(F)c1 [Example 74, N-cyclobutyl-4-{2-[(3R)-1-cyclobutylpyrrolidin-3-yl]-1-oxo-1,2,3,4-tetrahydroisoquinolin-6-yl}-3-fluorobenzamide] |
| 50.1 to 100 | COC(=O)c1ccc(Oc2ccc3c(c2)CCN(C2CCN(C4CCC4)CC2)C3=O)cc1 [Example 1, methyl 4-{[2-(1-Cyclobutylpiperidin-4-yl)-1-oxo-1,2,3,4-tetrahydroisoquinolin-6-yl]oxy}benzoate] |
| 10.1 to 25 | O=C(NC1CCCC1)c1ccc(Oc2ccc3c(c2)CCN(C2CCN(C4CCC4)CC2)C3=O)cc1 [Example 9, 4-{[2-(1-Cyclobutylpiperidin-4-yl)-1-oxo-1,2,3,4-tetrahydroisoquinolin-6-yl]oxy}-N-cyclopentylbenzamide] |
| ≤ 10 | CN(C)C(=O)c1ccc(-c2ccc3c(c2)CCN([C@@H]2CCN(C4CCC4)C2)C3=O)c(F)c1 [Example 78, 4-{2-[(3R)-1-cyclobutylpyrrolidin-3-yl]-1-oxo-1,2,3,4-tetrahydroisoquinolin-6-yl}-3-fluoro-N,N-dimethylbenzamide] |
| ≤ 10 | O=C(NC1CCCC1)c1ccc(-c2ccc3c(c2)CCN([C@@H]2CCN(C4CCC4)C2)C3=O)c(F)c1 [Example 80, 4-{2-[(3R)-1-cyclobutylpyrrolidin-3-yl]-1-oxo-1,2,3,4-tetrahydroisoquinolin-6-yl}-N-cyclopentyl-3-fluorobenzamide] |
| 10.1 to 25 | O=C(c1ccc(Oc2ccc3c(c2)CCN([C@@H]2CCN(C4CCC4)C2)C3=O)cc1)N1CCCC1 [Example 35, 2-[(3R)-1-cyclobutylpyrrolidin-3-yl]-6-[4-(pyrrolidin-1-ylcarbonyl)phenoxy]-3,4-dihydroisoquinolin-1(2H)-one] |
| ≤ 10 | CC(C)N1CC[C@@H](N2CCc3cc(-c4ccc(C(=O)N5CCCC5)cc4F)ccc3C2=O)C1 [Example 84, 6-[2-fluoro-4-(pyrrolidin-1-ylcarbonyl)phenyl]-2-[(3R)-1-isopropylpyrrolidin-3-yl]-3,4-dihydroisoquinolin-1(2H)-one] |
| ≤ 10 | CN(C)C(=O)c1ccc(COc2ccc3c(c2)CCN(C2CCN(C4CCC4)CC2)C3=O)cc1 [Example 18, 4-({[2-(1-Cyclobutylpiperidin-4-yl)-1-oxo-1,2,3,4-tetrahydroisoquinolin-6-yl]oxy}methyl)-N,N-dimethylbenzamide] |
